# Article PMC7368294 (Proceedings of the National Academy of Sciences of the …, 2020)
# Like-named read-outs stand apart in the source and are kept apart here.
# Tests used:
# [1] = target: Amα1/Amα2/Amα8/Amβ1 nAChR (Apis mellifera, UniProt A0A7M7MMZ9+A0A8U0WQ70+A0A8U0WQC0+A0A8U0WQD1); assay: two-electrode voltage clamp of Xenopus oocytes, agonist concentration-response; type: cell-based
# Dα1/Dβ1/Dβ2 nAChR = target: T1, Dα1/Dβ1/Dβ2 nAChR (Drosophila melanogaster, UniProt P04755+P09478+P25162); assay: cell-based; set-up: species or system Xenopus laevis oocytes; details: Oocyte
# T1 sequence (P09478 22-567): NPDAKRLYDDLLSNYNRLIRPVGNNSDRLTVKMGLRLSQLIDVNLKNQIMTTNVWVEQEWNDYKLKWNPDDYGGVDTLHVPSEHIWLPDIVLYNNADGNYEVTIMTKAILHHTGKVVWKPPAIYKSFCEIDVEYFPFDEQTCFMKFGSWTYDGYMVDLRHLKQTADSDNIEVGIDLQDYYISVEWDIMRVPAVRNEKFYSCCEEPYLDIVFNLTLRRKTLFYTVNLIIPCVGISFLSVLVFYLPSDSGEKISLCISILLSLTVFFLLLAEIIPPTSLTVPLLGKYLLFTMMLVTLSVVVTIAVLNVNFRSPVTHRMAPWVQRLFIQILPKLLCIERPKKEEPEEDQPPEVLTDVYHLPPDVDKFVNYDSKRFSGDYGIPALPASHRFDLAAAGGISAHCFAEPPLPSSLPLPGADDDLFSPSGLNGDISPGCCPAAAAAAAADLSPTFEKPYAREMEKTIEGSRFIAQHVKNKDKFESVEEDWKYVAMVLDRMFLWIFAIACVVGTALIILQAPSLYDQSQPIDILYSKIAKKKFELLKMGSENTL
# T1 sequence (P04755 25-521): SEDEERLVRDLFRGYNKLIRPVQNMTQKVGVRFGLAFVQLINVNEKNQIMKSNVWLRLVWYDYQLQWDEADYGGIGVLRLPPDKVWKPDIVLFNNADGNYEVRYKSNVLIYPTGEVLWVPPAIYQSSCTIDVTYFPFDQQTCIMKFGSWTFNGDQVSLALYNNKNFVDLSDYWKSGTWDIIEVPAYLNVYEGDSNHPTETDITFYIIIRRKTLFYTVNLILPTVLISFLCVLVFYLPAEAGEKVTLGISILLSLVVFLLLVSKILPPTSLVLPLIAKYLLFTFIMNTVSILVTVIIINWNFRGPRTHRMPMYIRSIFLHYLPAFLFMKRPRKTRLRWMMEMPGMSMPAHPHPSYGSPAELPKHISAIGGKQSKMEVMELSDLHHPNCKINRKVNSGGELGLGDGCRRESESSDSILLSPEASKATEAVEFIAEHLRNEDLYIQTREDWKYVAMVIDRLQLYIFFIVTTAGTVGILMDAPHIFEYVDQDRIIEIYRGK
# T1 sequence (P25162 19-519): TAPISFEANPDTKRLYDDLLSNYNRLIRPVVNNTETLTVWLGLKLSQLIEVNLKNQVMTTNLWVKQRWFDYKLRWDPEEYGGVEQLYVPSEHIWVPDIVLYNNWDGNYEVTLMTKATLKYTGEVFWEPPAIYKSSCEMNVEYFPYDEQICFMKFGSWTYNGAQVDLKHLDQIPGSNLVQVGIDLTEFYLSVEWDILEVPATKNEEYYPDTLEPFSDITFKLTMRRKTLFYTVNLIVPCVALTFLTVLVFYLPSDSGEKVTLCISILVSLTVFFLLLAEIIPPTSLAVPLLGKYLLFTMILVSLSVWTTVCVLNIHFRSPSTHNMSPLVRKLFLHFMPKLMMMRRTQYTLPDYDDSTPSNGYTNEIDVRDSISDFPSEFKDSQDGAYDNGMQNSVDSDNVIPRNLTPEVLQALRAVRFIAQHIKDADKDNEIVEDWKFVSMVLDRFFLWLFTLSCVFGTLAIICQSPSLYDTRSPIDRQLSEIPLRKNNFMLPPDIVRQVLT
# Dα1/Dα2/Dβ1 nAChR = target: T2, Dα1/Dα2/Dβ1 nAChR (Drosophila melanogaster, UniProt P04755+P09478+P17644); assay: cell-based; set-up: species or system Xenopus laevis oocytes; details: Oocyte
# T2 sequence (P09478 22-567): T1 sequence (P09478 22-567)
# T2 sequence (P17644 22-576): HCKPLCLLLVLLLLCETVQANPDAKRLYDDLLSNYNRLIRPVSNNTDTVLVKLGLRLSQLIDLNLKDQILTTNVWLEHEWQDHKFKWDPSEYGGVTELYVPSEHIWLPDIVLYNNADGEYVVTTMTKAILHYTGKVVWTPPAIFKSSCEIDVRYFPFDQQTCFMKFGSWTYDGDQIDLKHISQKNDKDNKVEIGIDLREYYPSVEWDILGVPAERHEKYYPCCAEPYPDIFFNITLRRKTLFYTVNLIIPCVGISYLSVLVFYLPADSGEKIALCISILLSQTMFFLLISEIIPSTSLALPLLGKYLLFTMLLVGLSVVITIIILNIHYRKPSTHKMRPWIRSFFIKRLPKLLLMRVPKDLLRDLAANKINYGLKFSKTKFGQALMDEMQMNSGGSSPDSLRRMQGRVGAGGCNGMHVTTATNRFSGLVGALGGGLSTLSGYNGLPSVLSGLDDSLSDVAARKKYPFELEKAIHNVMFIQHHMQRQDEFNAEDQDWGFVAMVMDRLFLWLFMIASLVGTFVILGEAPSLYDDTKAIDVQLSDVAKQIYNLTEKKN
# T2 sequence (P04755 25-521): T1 sequence (P04755 25-521)
# Chain of Amα1/Amα2/Amα8/Amβ1 nAChR (A0A7M7MMZ9 44-627): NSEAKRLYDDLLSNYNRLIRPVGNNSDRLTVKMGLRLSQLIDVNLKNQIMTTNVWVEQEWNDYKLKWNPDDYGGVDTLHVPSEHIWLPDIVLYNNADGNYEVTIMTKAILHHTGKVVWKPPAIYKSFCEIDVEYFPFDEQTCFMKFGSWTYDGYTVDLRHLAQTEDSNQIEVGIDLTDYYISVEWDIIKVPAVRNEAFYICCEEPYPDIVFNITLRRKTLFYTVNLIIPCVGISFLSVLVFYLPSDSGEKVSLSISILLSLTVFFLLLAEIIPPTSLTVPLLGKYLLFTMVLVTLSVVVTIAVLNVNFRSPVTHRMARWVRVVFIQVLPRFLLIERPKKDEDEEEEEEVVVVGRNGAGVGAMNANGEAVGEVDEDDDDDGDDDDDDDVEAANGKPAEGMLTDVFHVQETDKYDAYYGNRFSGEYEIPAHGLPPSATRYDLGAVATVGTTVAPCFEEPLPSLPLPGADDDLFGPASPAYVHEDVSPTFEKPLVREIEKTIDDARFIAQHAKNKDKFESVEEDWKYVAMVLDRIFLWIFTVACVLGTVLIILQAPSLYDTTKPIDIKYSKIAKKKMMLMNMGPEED
# Chain of Amα1/Amα2/Amα8/Amβ1 nAChR (A0A8U0WQD1 18-541): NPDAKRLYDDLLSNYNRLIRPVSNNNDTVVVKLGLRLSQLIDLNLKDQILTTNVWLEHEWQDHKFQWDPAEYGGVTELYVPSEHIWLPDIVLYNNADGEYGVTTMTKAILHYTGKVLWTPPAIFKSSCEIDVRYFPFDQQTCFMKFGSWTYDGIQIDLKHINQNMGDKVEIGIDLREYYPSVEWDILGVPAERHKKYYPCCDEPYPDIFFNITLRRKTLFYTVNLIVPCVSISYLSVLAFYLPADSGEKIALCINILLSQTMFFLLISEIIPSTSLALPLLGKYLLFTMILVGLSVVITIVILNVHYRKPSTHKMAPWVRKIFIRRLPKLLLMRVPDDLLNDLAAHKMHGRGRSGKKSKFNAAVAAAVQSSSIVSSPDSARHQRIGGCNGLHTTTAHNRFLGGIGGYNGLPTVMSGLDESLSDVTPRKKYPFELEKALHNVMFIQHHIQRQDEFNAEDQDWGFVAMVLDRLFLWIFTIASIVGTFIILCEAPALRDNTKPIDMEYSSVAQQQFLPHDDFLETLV
# Chain of Amα1/Amα2/Amα8/Amβ1 nAChR (A0A8U0WQ70 25-537): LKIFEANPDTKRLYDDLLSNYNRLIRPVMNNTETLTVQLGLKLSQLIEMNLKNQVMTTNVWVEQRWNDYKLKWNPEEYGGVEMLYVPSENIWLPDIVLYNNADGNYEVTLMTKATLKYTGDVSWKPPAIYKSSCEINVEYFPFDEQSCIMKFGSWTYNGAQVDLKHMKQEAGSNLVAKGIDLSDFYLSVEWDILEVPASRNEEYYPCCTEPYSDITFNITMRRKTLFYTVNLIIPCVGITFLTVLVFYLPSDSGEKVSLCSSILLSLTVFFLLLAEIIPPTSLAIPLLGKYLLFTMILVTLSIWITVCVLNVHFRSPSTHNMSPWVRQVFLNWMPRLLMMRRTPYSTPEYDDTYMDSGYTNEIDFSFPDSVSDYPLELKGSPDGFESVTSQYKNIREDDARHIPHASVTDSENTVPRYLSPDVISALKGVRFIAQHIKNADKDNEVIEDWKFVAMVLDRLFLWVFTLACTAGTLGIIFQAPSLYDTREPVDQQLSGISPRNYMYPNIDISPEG
# Chain of Amα1/Amα2/Amα8/Amβ1 nAChR (A0A8U0WQC0 25-520): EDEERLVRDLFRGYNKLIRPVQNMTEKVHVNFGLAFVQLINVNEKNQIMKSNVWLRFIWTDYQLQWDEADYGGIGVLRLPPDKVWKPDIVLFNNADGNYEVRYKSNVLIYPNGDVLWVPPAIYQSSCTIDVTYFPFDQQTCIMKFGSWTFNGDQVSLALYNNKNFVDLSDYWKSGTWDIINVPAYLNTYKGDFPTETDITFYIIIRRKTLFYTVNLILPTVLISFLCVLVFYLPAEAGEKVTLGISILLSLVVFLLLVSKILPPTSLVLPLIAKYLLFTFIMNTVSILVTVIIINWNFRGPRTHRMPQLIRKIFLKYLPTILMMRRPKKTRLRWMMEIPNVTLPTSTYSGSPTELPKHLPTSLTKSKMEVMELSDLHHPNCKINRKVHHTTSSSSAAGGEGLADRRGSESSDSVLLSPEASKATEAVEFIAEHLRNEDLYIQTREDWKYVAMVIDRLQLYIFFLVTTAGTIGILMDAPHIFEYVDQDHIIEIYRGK
Structure (SMILES),EC50 [1] [nM],Emax (Dα1/Dβ1/Dβ2 nAChR; read-out: Clothianidin / Imax / ND) [%],Emax (Dα1/Dα2/Dβ1 nAChR; read-out: Clothianidin / Imax) [%],Emax (Dα1/Dβ1/Dβ2 nAChR; read-out: Thiacloprid / Imax) [%],Emax (Dα1/Dα2/Dβ1 nAChR; read-out: Thiacloprid / Imax) [%],Emax (Dα1/Dβ1/Dβ2 nAChR; read-out: Imidacloprid / Imax) [%],Emax (Dα1/Dα2/Dβ1 nAChR; read-out: Imidacloprid / Imax) [%]
CN/C(=N\[N+](=O)[O-])NCc1cnc(Cl)s1 [clothianidin],8.13,41.1 ± 1.1,46.7 ± 2.1,–,–,–,–
N#C/N=C1\SCCN1Cc1ccc(Cl)nc1 [thiacloprid],6.92,–,–,5.6 ± 0.5,2 ± 0.2,–,–
O=[N+]([O-])NC1=NCCN1Cc1ccc(Cl)nc1 [imidacloprid],33.1,–,–,–,–,24.4 ± 2.2,4.6 ± 0.4
